Reference: ChEMBL document CHEMBL1154173, “L-proline-catalysed facile green protocol for the synthesis and antimycobacterial evaluation of [1,4]-thiazines” (2009)
≈ marks a conversion by molar mass, not a printed value.

Key:
[1] = system: Mycolicibacterium smegmatis; assay: Antimycobacterial activity against […] Mycobacterium smegmatis MC2 by agar dilution method; format: functional
[2] = system: Mycobacterium tuberculosis; assay: Antimycobacterial activity against Mycobacterium tuberculosis H37Rv by agar dilution method; format: functional

| SMILES | MIC [1] [µM] | MIC [2] [µM] |
| --- | --- | --- |
| CCOC(=O)C1C(c2ccccc2)NC(c2ccccc2)C(C(=O)c2ccc(Cl)cc2)S1(=O)=O (racemic) | 50.2 (≈ 25 µg/mL) | 12.6 (≈ 6.25 µg/mL) |
| CCOC(=O)C1C(c2ccc(N(C)C)cc2)NC(c2ccc(N(C)C)cc2)C(C(=O)c2ccc(Cl)cc2)S1(=O)=O (racemic) |  | 10.7 (≈ 6.25 µg/mL) |
| CCOC(=O)C1C(c2ccccc2C)N(C)C(c2ccccc2C)C(C(=O)c2ccc(Cl)cc2)S1(=O)=O (racemic) | 23.1 (≈ 12.5 µg/mL) | 11.6 (≈ 6.25 µg/mL) |
| CCOC(=O)C1C(c2ccccc2)N(C)C(c2ccccc2)C(C(=O)c2ccc(Cl)cc2)S1(=O)=O (racemic) | 48.8 (≈ 25 µg/mL) | 24.4 (≈ 12.5 µg/mL) |
| CCOC(=O)C1C(c2ccccc2Br)N(C)C(c2ccccc2Br)C(C(=O)c2ccc(Cl)cc2)S1(=O)=O (racemic) | 18.7 (≈ 12.5 µg/mL) | 9.33 (≈ 6.25 µg/mL) |
| NC(=O)c1cnccn1 [PYRAZINAMIDE] |  | 50.8 (≈ 6.25 µg/mL) |
| CCOC(=O)C1C(c2ccc([N+](=O)[O-])cc2)NC(c2ccc([N+](=O)[O-])cc2)C(C(=O)c2ccc(Cl)cc2)S1(=O)=O (racemic) | 10.6 (≈ 6.25 µg/mL) | 0.68 (≈ 0.4 µg/mL) |
| CCOC(=O)C1C(c2ccc(OC)cc2)N(Cc2ccccc2)C(c2ccc(OC)cc2)C(C(=O)c2ccc(Cl)cc2)S1(=O)=O (racemic) |  | 9.64 (≈ 6.25 µg/mL) |
| CCOC(=O)C1C(c2ccco2)NC(c2ccco2)C(C(=O)c2ccc(Cl)cc2)S1(=O)=O (racemic) |  | 6.55 (≈ 3.13 µg/mL) |
| CC[C@@H](CO)NCCN[C@@H](CC)CO [ETHAMBUTOL] |  | 7.64 (≈ 1.56 µg/mL) |
| CCOC(=O)C1C(c2cccs2)NC(c2cccs2)C(C(=O)c2ccc(Cl)cc2)S1(=O)=O (racemic) | 12.2 (≈ 6.25 µg/mL) | 12.2 (≈ 6.25 µg/mL) |
| CCOC(=O)C1C(c2ccco2)N(C)C(c2ccco2)C(C(=O)c2ccc(Cl)cc2)S1(=O)=O (racemic) | 50.8 (≈ 25 µg/mL) | 6.36 (≈ 3.13 µg/mL) |
| CO[C@H]1/C=C/O[C@@]2(C)Oc3c(C)c(O)c4c(O)c(c(/C=N/N5CCN(C)CC5)c(O)c4c3C2=O)NC(=O)/C(C)=C\C=C\[C@H](C)[C@H](O)[C@@H](C)[C@@H](O)[C@@H](C)[C@H](OC(C)=O)[C@@H]1C [RIFAMPIN] |  | 0.12 (≈ 0.0988 µg/mL) |
| CCOC(=O)C1C(c2ccccc2OC)NC(c2ccccc2OC)C(C(=O)c2ccc(Cl)cc2)S1(=O)=O (racemic) | 11.2 (≈ 6.25 µg/mL) | 5.61 (≈ 3.13 µg/mL) |
| CCOC(=O)C1C(c2cccc3ccccc23)NC(c2cccc3ccccc23)C(C(=O)c2ccc(Cl)cc2)S1(=O)=O (racemic) | 20.9 (≈ 12.5 µg/mL) | 10.4 (≈ 6.25 µg/mL) |
| CCOC(=O)C1C(c2ccc(Cl)cc2)N(C)C(c2ccc(Cl)cc2)C(C(=O)c2ccc(Cl)cc2)S1(=O)=O (racemic) | 43 (≈ 25 µg/mL) | 5.39 (≈ 3.13 µg/mL) |

| SMILES | MIC [1] [µM] | MIC [2] [µM] |
| --- | --- | --- |
| CCOC(=O)C1C(c2cccc(F)c2)NC(c2cccc(F)c2)C(C(=O)c2ccc(Cl)cc2)S1(=O)=O (racemic) |  | 5.86 (≈ 3.13 µg/mL) |
| CCOC(=O)C1C(c2ccc(F)cc2)N(Cc2ccccc2)C(c2ccc(F)cc2)C(C(=O)c2ccc(Cl)cc2)S1(=O)=O (racemic) | 40.1 (≈ 25 µg/mL) | 5.02 (≈ 3.13 µg/mL) |
| CCOC(=O)C1C(c2ccc(C)cc2)NC(c2ccc(C)cc2)C(C(=O)c2ccc(Cl)cc2)S1(=O)=O (racemic) | 2.97 (≈ 1.56 µg/mL) | 1.48 (≈ 0.779 µg/mL) |
| CCOC(=O)C1C(c2cccc([N+](=O)[O-])c2)NC(c2cccc([N+](=O)[O-])c2)C(C(=O)c2ccc(Cl)cc2)S1(=O)=O (racemic) | 10.6 (≈ 6.25 µg/mL) | 5.32 (≈ 3.13 µg/mL) |
| CCOC(=O)C1C(c2ccc(Cl)cc2)N(Cc2ccccc2)C(c2ccc(Cl)cc2)C(C(=O)c2ccc(Cl)cc2)S1(=O)=O (racemic) | 38 (≈ 25 µg/mL) | 9.51 (≈ 6.25 µg/mL) |
| CCOC(=O)C1C(c2cccc(F)c2)N(Cc2ccccc2)C(c2cccc(F)c2)C(C(=O)c2ccc(Cl)cc2)S1(=O)=O (racemic) | 40.1 (≈ 25 µg/mL) | 10 (≈ 6.25 µg/mL) |
| CCOC(=O)C1C(c2ccccc2)N(Cc2ccccc2)C(c2ccccc2)C(C(=O)c2ccc(Cl)cc2)S1(=O)=O (racemic) | 42.5 (≈ 25 µg/mL) | 42.5 (≈ 25 µg/mL) |
| NNC(=O)c1ccncc1 [ISONIAZID] | 45.6 (≈ 6.25 µg/mL) | 0.36 (≈ 0.0494 µg/mL) |
| CCOC(=O)C1C(c2ccc(C)cc2)N(Cc2ccccc2)C(c2ccc(C)cc2)C(C(=O)c2ccc(Cl)cc2)S1(=O)=O (racemic) | 40.6 (≈ 25 µg/mL) | 20.3 (≈ 12.5 µg/mL) |
| CCOC(=O)C1C(c2ccc(C)cc2)N(C)C(c2ccc(C)cc2)C(C(=O)c2ccc(Cl)cc2)S1(=O)=O (racemic) |  | 5.8 (≈ 3.13 µg/mL) |
| CCOC(=O)C1C(c2ccccc2[N+](=O)[O-])NC(c2ccccc2[N+](=O)[O-])C(C(=O)c2ccc(Cl)cc2)S1(=O)=O (racemic) |  | 3.03 (≈ 1.78 µg/mL) |
| CCOC(=O)C1C(c2cccc([N+](=O)[O-])c2)N(C)C(c2cccc([N+](=O)[O-])c2)C(C(=O)c2ccc(Cl)cc2)S1(=O)=O (racemic) | 41.5 (≈ 25 µg/mL) | 20.8 (≈ 12.5 µg/mL) |
| CCOC(=O)C1C(c2ccc(Cl)cc2Cl)NC(c2ccc(Cl)cc2Cl)C(C(=O)c2ccc(Cl)cc2)S1(=O)=O (racemic) |  | 1.23 (≈ 0.782 µg/mL) |
| CCOC(=O)C1C(c2ccc(OC)cc2)NC(c2ccc(OC)cc2)C(C(=O)c2ccc(Cl)cc2)S1(=O)=O (racemic) | 1.4 (≈ 0.781 µg/mL) | 0.72 (≈ 0.402 µg/mL) |
| CCOC(=O)C1C(c2ccc(Cl)cc2)NC(c2ccc(Cl)cc2)C(C(=O)c2ccc(Cl)cc2)S1(=O)=O (racemic) | 11 (≈ 6.25 µg/mL) | 2.75 (≈ 1.56 µg/mL) |
